35 compounds from patent US6410530B1, “Substituted 1,2,3,4-tetrahydronaphthalene derivatives” (AstraZeneca AB, priority 1996, dated 2002) can be followed below.

Each structure is given as a SMILES string.

With `CN1CCN(c2cccc3c2C[C@H](NC(=O)c2ccccc2O)CC3)CC1` [Example 92, (R)-N-[8-(4-Methylpiperazin-1-yl)-1,2,3,4-tetrahydro-2-naphthyl]-2-hydroxybenzamide], the melting point was 87 °C (dec.).
In the case of `CN1CCN(c2cccc3c2C[C@H](NC(=O)c2ccc(C(=O)N4CCOCC4)cc2)CC3)CC1` [Example 129, (R)-N-[8-(4-Methylpiperazin-1-yl)-1,2,3,4-tetrahydro-2-naphthyl]-4-morpholinocarbonylbenzamide] it was 124 to 127 °C; in that of `CN1CCN(c2cccc3c2C[C@H](NC(=O)c2csc(-c4ccncc4)n2)CC3)CC1` [Example 47, (R)-N-[8-(4-Methylpiperazin-1-yl)-1,2,3,4-tetrahydro-2-naphthyl]-2-(4-pyridyl)thiazole-4-carboxamide], 187 to 188 °C; in that of `CN1CCN(c2cccc3c2C[C@H](NC(=O)c2cccc(Oc4ccccc4)c2)CC3)CC1` [Example 87, (R)-N-[8-(4-Methylpiperazin-1-yl)-1,2,3,4-tetrahydro-2-naphthyl]-3-phenoxybenzamide], 136 to 137 °C.
Turning to `CC(=O)N[C@@H]1CCc2cccc(N3CCN(C)CC3)c2C1`, the melting point was 152 to 154 °C.
In the case of `CN1CCN(c2cccc3c2C[C@H](NC(=O)c2ccc(OS(C)(=O)=O)cc2)CC3)CC1` [Example 67, (R)-N-[8-(4-Methylpiperazin-1-yl)-1,2,3,4-tetrahydro-2-naphthyl]-4-methylsulfonyloxybenzamide] it was 199 to 200 °C; in that of `CCCCOc1ccc(C(=O)N[C@H]2CCc3cccc(N4CCN(C)CC4)c3C2)cc1` [Example 71, (S)-N-[8-(4-Methylpiperazin-1-yl)-1,2,3,4-tetrahydro-2-naphthyl]-4-butoxybenzamide], 190 to 192 °C; in that of `CCc1ccc(-c2ccc(C(=O)N[C@@H]3CCc4cccc(N5CCN(C)CC5)c4C3)cc2)cc1` [Example 84, (R)-N-[8-(4-Methylpiperazin-1-yl)-1,2,3,4-tetrahydro-2-naphthyl]-4-(4-ethylphenyl)benzamide], 234 to 235 °C.
`CCCC(=O)N[C@@H]1CCc2cccc(N3CCN(C)CC3)c2C1` showed a melting point of 131 to 132 °C.
Compound `CN1CCN(c2cccc3c2C[C@H](NC(=O)Cc2ccccc2)CC3)CC1` [Example 80, (R)-N-[8-(4-Methylpiperazin-1-yl)-1,2,3,4-tetrahydro-2-naphthyl]phenylacetamide] came in with a melting point of 151 to 152 °C.
For `CCCCOc1ccc(C(=O)N[C@@H]2CCc3cccc(N4CCN(C)CC4)c3C2)cc1` [Example 70, (R)-N-[8-(4-Methylpiperazin-1-yl)-1,2,3,4-tetrahydro-2-naphthyl]-4-butoxybenzamide], the melting point is 190 to 191 °C.
As for `CN1CCN(c2cccc3c2C[C@H](NC(=O)c2csc(-c4ccccc4)n2)CC3)CC1` [Example 46, (R)-N-[8-(4-Methylpiperazin-1-yl)-1,2,3,4-tetrahydro-2-naphthyl]-2-phenylthiazole-4-carboxamide], the melting point fell in the range of 175 to 176 °C.
`CCCCCN1CCN(c2cccc3c2C[C@H](NC(C)=O)CC3)CC1` [Example 30, (R)-N-[8-(4-Pentylpiperazin-1-yl)-1,2,3,4-tetrahydro-2-naphthyl]acetamide] yielded a melting point of 119 to 120 °C.
The compound `CN1CCC(c2cccc3c2C[C@H](NC(=O)c2ccc(C(F)(F)F)cc2)CC3)CC1` [Example 99, (R)-N-[8-(1-Methylpiperidine-4yl)-1,2,3,4-tetrahydro-2-naphthyl]-4-trifluoromethylbenzamide] displayed a melting point of 163 to 166 °C.
Regarding `CN1CCN(c2cccc3c2C[C@H](NC(=O)c2ccc(-c4ccccc4)cc2)CC3)CC1` [Example 44, (R)-N-[8-(4-Methylpiperazin-1-yl)-1,2,3,4-tetrahydro-2-naphthyl]-1,1′-biphenyl-4-carboxamide], the melting point was in the range of 232 to 233 °C.
Turning to `CN1CCN(c2cccc3c2C[C@H](NC(=O)c2ccccc2OS(C)(=O)=O)CC3)CC1` [Example 93, (R)-N-[8-(4-Methylpiperazin-1-yl)-1,2,3,4-tetrahydro-2-naphthyl]-2-methylsulfonyloxybenzamide], the melting point was 144 to 145 °C.
For the compound `CN1CCN(c2cccc3c2C[C@H](NC(=O)c2ccc(-c4ccc(O)cc4)cc2)CC3)CC1` [Example 85, (R)-N-[8-(4-Methylpiperazin-1-yl)-1,2,3,4-tetrahydro-2-naphthyl]-4-(4-hydroxyphenyl)benzamide], the melting point lay within 261 to 262 °C.
Consider `CCCN1CCN(c2cccc3c2C[C@H](NC(=O)c2ccc(N4CCOCC4)cc2)CC3)CC1` [Example 57, (R)-N-[8-(4-Propylpiperazin-1-yl)-1,2,3,4-tetrahydro-2-naphthyl]-4-morpholinobenzamide], for which the melting point was in the range of 183 to 185 °C.
Compound `CN1CCN(c2cccc3c2C[C@H](N(C)C(=O)c2ccc(C(F)(F)F)cc2)CC3)CC1` [Example 122, (R)-N-Methyl-N-[8-(4-methylpiperazin-1-yl)-1,2,3,4-tetrahydro-2-naphthyl]-4-trifluoromethylbenzamide] registered a melting point of 123 to 125 °C.
Consider `CCCN1CCN(c2cccc3c2C[C@H](NC(C)=O)CC3)CC1` [Example 24, (R)-N-[8-(4-Propylpiperazin-1-yl)-1,2,3,4-tetrahydro-2-naphthyl]acetamide], for which the melting point was 139 to 140 °C.
`CN1CCN(c2cccc3c2C[C@H](NC(=O)c2ccc(C4CCCCC4)cc2)CC3)CC1` [Example 63, (R)-N-[8-(4-Methylpiperazin-1-yl)-1,2,3,4-tetrahydro-2-naphthyl]-4-cyclohexylbenzamide] displayed a melting point of 224 to 226 °C.
`CN1CCN(c2cccc3c2CC[C@H](NC(=O)c2ccc(N4CCOCC4)cc2)C3)CC1` [Example 119, (S)-N-[5-(4-Methylpiperazin-1-yl)-1,2,3,4-tetrahydro-2-naphthyl]-4-morpholinobenzamide] came in with a melting point of 129 to 131 °C.
In turn, `CN1CCN(c2cccc3c2C[C@@H](NC(=O)c2ccc(N4CCOCC4)cc2)CC3)CC1` [Example 55, (S)-N-[8-(4-Methylpiperazin-1-yl)-1,2,3,4-tetrahydro-2-naphthyl]-4-morpholinobenzamide] displayed a melting point of 228 to 230 °C.
`CN1CCN(c2cccc3c2C[C@@H](NC(=O)c2ccc(C(F)(F)F)cc2)CC3)CC1` [Example 66, (S)-N-[8-(4-Methylpiperazin-1-yl)-1,2,3,4-tetrahydro-2-naphthyl]-4-trifluoromethylbenzamide] yielded a melting point of 202 to 204 °C.
Regarding `CCCCCCN1CCN(c2cccc3c2C[C@H](NC(C)=O)CC3)CC1` [Example 33, (R)-N-[8-(4-Hexylpiperazin-1-yl)-1,2,3,4-tetrahydro-2-naphthyl]acetamide], the melting point fell in the range of 117 to 118 °C.
With `CN1CCN(c2cccc3c2C[C@H](NC(=O)c2ccc(Cl)cc2)CC3)CC1` [Example 74, (R)-N-[8-(4-Methylpiperazin-1-yl)-1,2,3,4-tetrahydro-2-naphthyl]-4-chlorobenzamide], the melting point lay in the range of 204 to 205 °C.
The compound `CCCCOc1ccc(C(=O)N[C@@H]2CCc3cccc(C4CCN(C)CC4)c3C2)cc1` [Example 100, (R)-N-[8-(1-Methylpiperidin-4-yl)-1,2,3,4-tetrahydro-2-naphthyl]-4-butoxybenzamide] returned a melting point of 162 to 164 °C.
`CN1CCN(c2cccc3c2C[C@H](NC(=O)c2ccc(N4CCSCC4)cc2)CC3)CC1` [Example 125, (R)-N-[8-(4-Methylpiperazin-1-yl)-1,2,3,4-tetrahydro-2-naphthyl]-4-thiomorpholinobenzamide] yielded a melting point of 190 to 191 °C.
In the case of `CCc1ccc(C(=O)N[C@@H]2CCc3cccc(N4CCN(C)CC4)c3C2)cc1` [Example 69, (R)-N-[8-(4-Methylpiperazin-1-yl)-1,2,3,4-tetrahydro-2-naphthyl]-4-ethylbenzamide], the melting point was in the range of 177 to 178 °C.
For the compound `CN1CCN(c2cccc3c2CC[C@@H](NC(=O)c2ccc(N4CCOCC4)cc2)C3)CC1` [Example 118, (R)-N-[5-(4-Methylpiperazin-1-yl)-1,2,3,4-tetrahydro-2-naphthyl]-4-morpholinobenzamide], the melting point was 127 to 128 °C.
In the case of `CN1CCN(c2cccc3c2C[C@H](NC(=O)c2ccc(F)cc2)CC3)CC1` [Example 72, (R)-N-[8-(4-Methylpiperazin-1-yl)-1,2,3,4-tetrahydro-2-naphthyl]-4-fluorobenzamide], the melting point fell in the range of 189 to 190 °C.
With `CN1CCN(c2cccc3c2C[C@H](NC(=O)c2ccc(N4CCOCC4)cc2)CC3)CC1` [Example 54, (R)-N-[8-(4-Methylpiperazin-1-yl)-1,2,3,4-tetrahydro-2-naphthyl]-4-morpholinobenzamide] the figure was 230 to 231 °C; with `CN1CCN(c2cccc3c2C[C@H](NS(C)(=O)=O)CC3)CC1`, 135 to 137 °C.
With `CN1CCN(c2cccc3c2C[C@H](NC(=O)c2cccc(O)c2)CC3)CC1` [Example 88, (R)-N-[8-(4-Methylpiperazin-1-yl)-1,2,3,4-tetrahydro-2-naphthyl]-3-hydroxybenzamide] the figure was 117 °C (dec.); with `CN1CCN(c2cccc3c2C[C@H](NC(=O)c2ccc(C#N)cc2)CC3)CC1` [Example 50, (R)-N-[8-(4-Methylpiperazin-1-yl)-1,2,3,4-tetrahydro-2-naphthyl]-4-cyanobenzamide], 184 to 186 °C.

By melting point is commonly meant the temperature of the solid-liquid transition.
